Results taken from ChEMBL document CHEMBL4673339, “Immunomodulatory Constituents of Conocephalum conicum (Snake Liverwort) and the Relationship of Isolepidozenes to Germacranes and Humulanes” (J Nat Prod, 2020).
Active and inactive are the calls of the source. The rule behind the calls is not given here.

Experiments:
[1] = system: Splenocyte; assay: Immunomodulatory activity in Wistar rat splenocytes assessed as decrease in LPS-induced cell proliferation at 0.1 to 100 uM after 48 hrs by MTT assay; assay type: functional, cell-based; conditions: dose 0.1-100 µM
[2] = system: Splenocyte; assay: Immunomodulatory activity in Wistar rat splenocytes assessed as decrease in ConA-induced cell proliferation at 0.1 to 500 uM after 48 hrs by MTT assay; assay type: functional, cell-based; conditions: dose 0.1-500 µM
[3] = Cytotoxicity against Wistar rat splenocytes assessed as cell viability at >10 uM after 24 to 48 hrs by MTT assay; assay type: tissue-based; conditions: splenocyte, time 24-48 hrs
[4] = Cytotoxicity against Wistar rat splenocytes assessed as reduction in cell viability at 100 to 500 uM after 24 hrs by MTT assay; assay type: tissue-based; conditions: splenocyte, dose 100-500 µM
[5] = Cytotoxicity against Wistar rat splenocytes assessed as reduction in cell viability at 100 uM after 48 hrs by MTT assay relative to control; assay type: tissue-based; conditions: splenocyte
[6] = system: Splenocyte; assay: Immunomodulatory activity in Wistar rat splenocytes assessed as decrease in LPS-induced cell proliferation at 500 uM after 48 hrs by MTT assay; assay type: functional, cell-based
[7] = system: Splenocyte; assay: Immunomodulatory activity in Wistar rat splenocytes assessed as decrease in LPS-induced cell proliferation at 0.1 to 10 uM after 48 hrs by MTT assay; assay type: functional, cell-based; conditions: dose 0.1-10 µM
[8] = Cytotoxicity against Wistar rat splenocytes assessed as cell viability at 0.1 uM after 48 hrs by MTT assay; assay type: tissue-based; conditions: splenocyte
[9] = Cytotoxicity against Wistar rat splenocytes assessed as cell viability at 100 uM after 48 hrs by MTT assay relative to control; assay type: tissue-based, Splenocyte; conditions: read-out: Activity
[10] = Cytotoxicity against Wistar rat splenocytes assessed as reduction in cell viability at 0.1 to 500 uM after 48 hrs by MTT assay; assay type: tissue-based; conditions: splenocyte, dose 0.1-500 µM

With C/C1=C\[C@@H]2[C@@H](CC/C(CO)=C/CC1)C2(C)C (relative stereo) the Activity [1] was “inactive”, the Activity [2] was “Active” and the Activity [3] was “Toxic”. The Activity [4] was “Toxic”.
Work on C[C@@H]1C[C@H]2[C@@H]3CCC4=CC(=O)C=C[C@]4(C)[C@@]3(F)[C@@H](O)C[C@]2(C)[C@@]1(O)C(=O)CO [DEXAMETHASONE] yielded an Activity [5] of 65%.
For C[C@H]1CCC2=C(C(C)(C)O)CC(C)(C)C[C@@H]21 (relative stereo), the Activity [6] was “inactive”, the Activity [2] was “Active” and the Activity [7] was “Active”. The Activity [8] was “Non-Toxic” and the Activity [4] was “Toxic”.
For C[C@@H]1/C=C/[C@H](C(C)(C)O)CC/C(CO)=C/CC1 (relative stereo), the Activity [6] was “inactive”, the Activity [2] was “Active” and the Activity [7] was “Active”. For the same compound, the Activity [3] was “Toxic” and the Activity [4] was “Toxic”.
For C[C@@H]1/C=C/C(C)(C)[C@H](O)CC/C(CO)=C/CC1 (relative stereo), the Activity [6] was “inactive”, the Activity [2] was “Active” and the Activity [7] was “Active”. The viability at 48 h, 100 µM [9] was 60%, the Activity [10] was “Toxic” and the Activity [4] was “Toxic”.
